Source: the supplement of paper PMC5908809

Experiments:
[1] = test system: NK-92 (IL-2 2.5 ng/mL); test: drug sensitivity score (DSS) (DSS units); higher = more sensitive; extreme values may be limits of the assay; conditions: 72 h
[2] = test system: YT (IL-2 2.5 ng/mL); test: as above; conditions: 72 h
[3] = test system: normal primary NK cells, pool 1 (3 donors), resting (IL-2 0 ng/mL); test: as above; conditions: 72 h
[4] = test system: SNK-6 (IL-2 2.5 ng/mL); test: as above; conditions: 72 h
[5] = test system: NK-YS (IL-2 2.5 ng/mL); test: as above; conditions: 72 h
[6] = test system: normal primary NK cells, pool 1 (3 donors) (IL-2 2.5 ng/mL); test: as above; conditions: 72 h
[7] = test system: KAI3 (IL-2 2.5 ng/mL); test: as above; conditions: 72 h
[8] = test system: KHYG-1 (IL-2 2.5 ng/mL); test: as above; conditions: 72 h
[9] = test system: IMC-1 (IL-2 20 ng/mL); test: as above; conditions: 72 h
[10] = test system: normal primary NK cells, pool 3 (3 donors) (IL-2 2.5 ng/mL); test: as above; conditions: 72 h
[11] = test system: normal primary NK cells, pool 2 (3 donors) (IL-2 2.5 ng/mL); test: as above; conditions: 72 h
[12] = test system: DERL-7 (IL-2 2.5 ng/mL); test: as above; conditions: 72 h
[13] = test system: NKL (IL-2 2.5 ng/mL); test: as above; conditions: 72 h
[14] = test system: NK-92 (IL-2 2.5 ng/mL); test: percent inhibition of viability; higher = more inhibition; conditions: 72 h
[15] = test system: YT (IL-2 2.5 ng/mL); test: as above; conditions: 72 h
[16] = test system: normal primary NK cells, pool 1 (3 donors), resting (IL-2 0 ng/mL); test: as above; conditions: 72 h
[17] = test system: SNK-6 (IL-2 2.5 ng/mL); test: as above; conditions: 72 h
[18] = test system: NK-YS (IL-2 2.5 ng/mL); test: as above; conditions: 72 h
[19] = test system: normal primary NK cells, pool 1 (3 donors) (IL-2 2.5 ng/mL); test: as above; conditions: 72 h
[20] = test system: KAI3 (IL-2 2.5 ng/mL); test: as above; conditions: 72 h
[21] = test system: KHYG-1 (IL-2 2.5 ng/mL); test: as above; conditions: 72 h
[22] = test system: IMC-1 (IL-2 20 ng/mL); test: as above; conditions: 72 h
[23] = test system: normal primary NK cells, pool 3 (3 donors) (IL-2 2.5 ng/mL); test: as above; conditions: 72 h
[24] = test system: normal primary NK cells, pool 2 (3 donors) (IL-2 2.5 ng/mL); test: as above; conditions: 72 h
[25] = test system: DERL-7 (IL-2 2.5 ng/mL); test: as above; conditions: 72 h
[26] = test system: NKL (IL-2 2.5 ng/mL); test: as above; conditions: 72 h
[27] = test system: normal NK cells expanded with K562-aAPC; test: as above; conditions: 72 h, IL-2 2.5 ng/mL
Protocol: (§1)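 Drug sensitivity and resistance testing on K562-aAPC-expanded normal NK cells: 5 concentrations (10-fold steps over a 10,000-fold range), 72 h at 37 °C, viability by CellTiter-Glo normalised to DMSO and benzethonium chloride controls; DSS from the fitted curve.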

[28] = test system: normal NK cells expanded with K562-aAPC; test: drug sensitivity score (DSS) (DSS units); higher = more sensitive; extreme values may be limits of the assay; conditions: 72 h; IL-2 2.5 ng/mL
Protocol: as §1

CCc1cncnc1N1CCN(Cc2nc3ccc(C(F)(F)F)cc3[nH]2)CC1 (max concentration tested 10000 nM)
Conditions	drug sensitivity score
[1]	5.84
[2]	3.86
[3]	6.44
[4]	6.35
[5]	4.07
[6]	5.45
[7]	1.03
[8]	5.08
[9]	6.88
[10]	0.75
[11]	3.74
[12]	0.17
[13]	5.1
[28]	0

percent inhibition of viability [%]
Conditions	1 nM	10 nM	100 nM	1000 nM	10000 nM
[14]	-1.05	10.1	6.83	20.4	62.3
[15]	-1.53	-2.69	2.06	11.5	41.9
[16]	-8.97	13.4	10	13.6	75.6
[17]	-7.09	-9.08	8.29	30.2	30.4
[18]	-2.32	-5.55	-2.77	9.57	47.8
[19]	-2.5	14.2	12.3	11.8	63.6
[20]	-0.12	-5.66	-9.54	-2.26	28.4
[21]	-4.31	-8.31	-0.12	17.2	49.7
[22]	-6.13	-3.43	3.72	11.3	90
[23]	-9.93	7.71	7.04	-6.89	26.4
[24]	-7.09	4.46	7.58	8.67	44.9
[25]	3.43	7.18	-5.16	-1.27	14.8
[26]	-11.3	-11	-6.3	10.8	60.8
[27]	-4.68	-5.08	-4.29	0.89	5

CCCS(=O)(=O)Nc1ccc(F)c(C(=O)c2c[nH]c3ncc(-c4ccc(Cl)cc4)cc23)c1F [Vemurafenib] (max concentration tested 10000 nM)
Conditions	drug sensitivity score
[1]	8.16
[2]	8.15
[3]	4.54
[4]	5.17
[5]	4.38
[6]	0
[7]	6.2
[8]	11.1
[9]	1.59
[10]	0
[11]	0
[12]	6.92
[13]	6.06
[28]	0

percent inhibition of viability [%]
Conditions	1 nM	10 nM	100 nM	1000 nM	10000 nM
[14]	-0.79	1.62	12	22.6	89.5
[15]	1.23	-1.61	4.12	16.2	98.7
[16]	3.45	-3.02	6.61	23.4	23.8
[17]	-12.9	-2.01	-17	-0.04	92.6
[18]	-2.8	-10.1	-3.62	0.91	77.1
[19]	-3.98	-7.14	1.09	0.31	-3.81
[20]	-2.25	-4.57	-1.04	12.3	75.2
[21]	1.21	-7.43	3.43	42.5	105
[22]	-6.37	-7.47	-1.05	-3.36	37.8
[23]	0.76	-2.71	6.1	0.26	0.17
[24]	-1.54	-1.23	6.03	0.86	9.89
[25]	3.23	0.38	4.34	15.4	79.5
[26]	-13.6	-17.7	-12.3	12.2	73.1
[27]	-5.54	-6.29	-9.37	-4.54	5.8

c1ccc2c(CCNc3ccc(Nc4ccncc4)cc3)c[nH]c2c1 [Serdemetan] (max concentration tested 10000 nM)
Conditions	drug sensitivity score
[1]	7.67
[2]	7.62
[3]	14
[4]	5.77
[5]	11.7
[6]	12
[7]	15.1
[8]	8.49
[9]	5.74
[10]	10.8
[11]	9.95
[12]	17.7
[13]	20.1
[28]	11

percent inhibition of viability [%]
Conditions	1 nM	10 nM	100 nM	1000 nM	10000 nM
[14]	-2.5	-9.68	-24.1	16.9	89.1
[15]	-0.01	-0.09	2.11	16.2	89.5
[16]	-1.96	-20.5	-16.5	78.3	90.8
[17]	1.74	-8.4	-40.5	2.69	97.8
[18]	-3.94	-6.06	-3.31	54.3	93.6
[19]	-2.89	-12	-5.86	54.6	98
[20]	1.77	-7.13	13.3	71.7	96.4
[21]	-4.53	-3.7	-1.91	20.5	94.6
[22]	-3.43	-4.48	-1.24	6.25	86.2
[23]	-9.21	-2.68	-1.24	41.2	98.2
[24]	-12.5	-4.95	-4.4	34	94.8
[25]	1.57	3.06	5.72	93	99.8
[26]	-4.48	-6.86	12.5	103	96.3
[27]	3.3	-0.88	-3.23	41.7	99.6

CC(=O)O[C@H]1C(=O)[C@@]2(C)[C@H]([C@H](OC(=O)c3ccccc3)[C@]3(O)C[C@H](OC(=O)[C@H](O)[C@@H](NC(=O)c4ccccc4)c4ccccc4)C(C)=C1C3(C)C)[C@]1(OC(C)=O)CO[C@@H]1C[C@@H]2O [Paclitaxel] (max concentration tested 1000 nM)
Conditions	drug sensitivity score
[1]	18.8
[2]	27.5
[3]	0
[4]	23.7
[5]	22.8
[6]	0
[7]	18.9
[8]	26.9
[9]	30.2
[10]	0
[11]	0.27
[12]	30.3
[13]	26.6
[28]	10.8

percent inhibition of viability [%]
Conditions	0.1 nM	1 nM	10 nM	100 nM	1000 nM
[14]	-18.6	-5.15	11.3	92.6	94
[15]	-2.12	-2.24	82.5	102	93.8
[16]	-38.3	-37.4	-2.05	-14	0.96
[17]	6.76	-3.54	75.5	79	72.6
[18]	-2.51	-5.4	71.3	77.6	64.6
[19]	-14.5	-13.4	-1.12	-4.6	3.64
[20]	-12.1	9.77	53	60.6	46.1
[21]	-5.68	-0.23	77.2	106	99.2
[22]	-7.88	-0.55	98.5	100	99.5
[23]	-12.4	-15.8	-13.3	-0.71	10.2
[24]	-2.11	-0.3	-9.26	1.41	14
[25]	2.23	-0.79	99.4	100	99.4
[26]	-17.5	-11.8	84.1	93.2	87.1
[27]	0.76	-4.63	3.65	56.1	55.1

CCn1c(=O)c(-c2cc[nH]n2)cc2c(C)nc(N)nc21 [Voxtalisib] (max concentration tested 10000 nM)
Conditions	drug sensitivity score
[1]	10.7
[2]	9.92
[3]	5.05
[4]	3.96
[5]	7.02
[6]	6.3
[7]	9.29
[8]	7.22
[9]	0.15
[10]	4.03
[11]	4.74
[12]	13.8
[13]	10.1
[28]	7.48

percent inhibition of viability [%]
Conditions	1 nM	10 nM	100 nM	1000 nM	10000 nM
[14]	-8.65	11.8	10.3	47.6	82.8
[15]	-4.53	-3.54	0.98	38.7	88.6
[16]	-7.13	11.3	7.69	23	43.4
[17]	-15.8	-23.8	-25.5	-0.25	72.2
[18]	-5.07	0.15	3.01	23.8	69.5
[19]	-5.05	2.34	10.6	28.2	49.9
[20]	-4.78	-4.19	6.21	42.3	75.8
[21]	-9	-5.41	-5.59	17.8	79.4
[22]	-10.6	-2.45	-10.8	-9.7	16.3
[23]	-5.2	-0.71	13.1	17.8	35.1
[24]	-10.4	2.91	12.1	20.6	40.3
[25]	5.41	4.21	13.1	64	90.5
[26]	-8.64	-12.9	-1.2	46.7	80.6
[27]	0.41	-5.61	9.15	33.9	60.2
